# Reference: US9403791B1, “Coumarin derivatives for cancer therapy” (Wellesley College, priority 2013, dated 2016)
# Key:
# PANC-1 cells [1] = assay: In vitro cytotoxicity assay (WST-8 cell viability), nutrient deprived media; type: cell-based; conditions: for CC50: Homo sapiens, PANC-1 cells, 24-hour incubation, WST-8 cell counting kit, nutrient deprived media (medium not restated at table), read-out: LC50 (the source's name)
# Protocol: (§1) PANC-1 cells, ranging from passage numbers 30-36 and 40-45, were seeded in 96-well plates at a density of 2.5×10^4 cells per well and incubated in fresh Dulbecco's modified Eagle's medium (DMEM, Sigma Aldrich) at 37° C. and 5% CO2 for 24 hours. Cells were then washed with PBS (Sigma Aldrich) and then subjected to the addition of either DMEM or nutrient deprived media (absence of glucose, amino acid and serum). Serially diluted coumarin compounds were added to the cells followed by a 24-hour incubation at 37° C. and 5% CO2. Cell morphology was then observed under an inverted microscope. Cells were then washed with PBS, and fresh DMEM and 10% WST-8 cell counting kit solution (Dojindo Molecular Technologies) were added to each well. The cells were incubated for 3-hours at 37° C. and 5% CO2. Absorbance values were measured using a plate reader at 450 nm, and cell viability was calculated using the following equation % Cell viability=[{Abstest sample−Absblank}/{Abscontrol−Absblank}]*100. The cell viability of compounds 2, 3 and 4 is seen in FIG. 1a.
# (§2) The assay detailed above was performed additional times and results were obtained. Briefly, PANC-1 cells, ranging from passage numbers 30-36 and 40-45, were seeded in 96-well plates at a density of 2.5×10^4 cells per well density and incubated in fresh Dulbecco's modified Eagle's medium (DMEM, Sigma Aldrich) at 37° C., 5% CO2 for 24 hours. Cells were then washed with PBS (Sigma Aldrich) and then subjected to the addition of either nutrient rich media (NRM) or nutrient deprived media (NDM). Serially diluted coumarin compounds (5.5% DMSO in NDM) were added to the cells followed by a 24-hour incubation at 37° C., 5% CO2. Cell morphology was then observed under an inverted microscope. Cells were then washed with PBS, and fresh DMEM and 10% WST-8 cell counting kit (Dojindo Molecular Technologies) were added for a 3-hour incubation at 37° C., 5% CO2. Absorbance values were measured with a plate reader at 450 nm, and cell viability was calculated using the equation % Cell viability=[{Abstest sample−Absblank}/{Abscontrol−Absblank}]*100. The cell viability of compounds 2, 3 and 4 (e.g., viability of cells following treatment with compounds 2, 3, or 4 was assessed) is shown in FIG. 1b, and is consistent with the results shown in FIG. 1a. LC50 values were determined and are as follows.
# PANC-1 cells [2] = assay: In vitro cytotoxicity assay (WST-8 cell viability), nutrient rich media; type: cell-based
# Protocol: as §1
# as §2, with “Serially diluted coumarin compounds (5.5% DMSO in NDM) were added to the cells followed by a 24-hour incubation at 37° C., 5% CO2. Cell morphology was then observed under an inverted microscope. Cells were then washed with PBS, and fresh DMEM and 10% WST-8 cell counting kit (Dojindo Molecular Technologies) were added for a 3-hour incubation at 37° C., 5% CO2.” left out
# PANC-1 cells [3] = assay: Morphological change observation under inverted microscope, nutrient-deprived conditions; type: cell-based; conditions: 6.25 μM, 12.5 μM, and 25 μM, 24 hour incubation
# Protocol: as §1, with “Cells were then washed with PBS, and fresh DMEM and 10% WST-8 cell counting kit solution (Dojindo Molecular Technologies) were added to each well. The cells were incubated for 3-hours at 37° C. and 5% CO2.” left out, “The cell viability of compounds 2, 3 and 4 is seen in FIG. 1a.” left out
# The assay detailed above was performed additional times and results were obtained. […] Absorbance values were measured with a plate reader at 450 nm, and cell viability was calculated using the equation % Cell viability=[{Abstest sample−Absblank}/{Abscontrol−Absblank}]*100. The cell viability of compounds 2, 3 and 4 (e.g., viability of cells following treatment with compounds 2, 3, or 4 was assessed) is shown in FIG. 1b, and is consistent with the results shown in FIG. 1a. LC50 values were determined and are as follows.
# [4] = test system: pancreatic cancer cell line PANC-1; conditions: within 24 hours; cited from earlier work
Structure (SMILES),CC50 (PANC-1 cells [1]) [µM],cytotoxicity towards PANC-1 cells under nutrient starvation conditions (PANC-1 cells [1]),cytotoxic activity when cells cultured under nutrient-rich conditions (PANC-1 cells [2]),morphological changes to PANC-1 cells (PANC-1 cells [3]),cytotoxicity against PANC-1 under nutrient starvation conditions [4]
"CC(C)=CCC/C(C)=C/CC/C(C)=C/COc1ccc2oc(=O)ccc2c1 [Compound 4, 6-(((2E,6E)-3,7,11-trimethyldodeca-2,6,10-trien-1-yl)oxy)-2H-chromen-2-one]",4,preferential cytotoxicity,no significant cytotoxic activity,induced apoptosis-like morphological changes,
"CC(C)(OC(=O)C=Cc1ccc(O)cc1)C1Cc2c(ccc3ccc(=O)oc23)O1 (centres unmarked) [Angelmarin, 11-O-(p-hydroxy-cinnamoyl) columbianetin]",,,,,exhibit cytotoxicity
"CC(C)=CCC/C(C)=C/COc1ccc2oc(=O)ccc2c1 [Compound 3, (E)-6-((3,7-dimethylocta-2,6-dien-1-yl)oxy)-2H-chromen-2-one]",12,preferential cytotoxicity,no significant cytotoxic activity,,
"CC(C)=CCOc1ccc2oc(=O)ccc2c1 [Compound 2, 6-((3-methylbut-2-en-1-yl)oxy)-2H-chromen-2-one]",> 100,preferential cytotoxicity,no significant cytotoxic activity,,
